The values below come from paper PMC11475570, “Impact of Optimized Ku–DNA Binding Inhibitors on the Cellular and In Vivo DNA Damage Response” (Cancers, 2024).

Broadly, the IC50 is the midpoint of a concentration-inhibition curve. Higher therefore signals a need for much substance.

Where “and” joins values, the source holds several entries; their conditions need not be identical. Equal values may be shown once.

One data set addresses T1, DNA-PK (Homo sapiens, UniProt P12956+P13010).
T1 construct: made in house; Ku 70/80 from baculovirus-infected Sf9 cells
Briefly: DNA-PK kinase assay (phosphate transfer to p53 peptide). Particulars: for IC50: DNA-dependent phosphate transfer to synthetic p53 peptide, purified DNA-PK, mean and SD of triplicate. Format: biochemical. As to the method: (§1) The inhibitory activity of Ku-DBis on Ku-DNA binding was evaluated in vitro using Electrophoretic mobility shift assays (EMSA) with a [^32P]-labeled 30-bp duplex DNA and purified Ku 70/80. Kinase assays were performed to measure the DNA-dependent transfer of [^32P] from γ-[^32P] ATP to a synthetic p53-based peptide substrate, both as previously described. Both EMSA and DNA-PK inhibitor titration assays were performed in triplicate. Data were fit to standard binding curves using GraphPad Prism to determine IC50 values.

In another data set the target is T2, Ku 70/80 (Homo sapiens, UniProt P12956+P13010).
T2 construct: made in house; host or cells: baculovirus-infected Sf9 cells
T2 sequence (P12956 whole entry): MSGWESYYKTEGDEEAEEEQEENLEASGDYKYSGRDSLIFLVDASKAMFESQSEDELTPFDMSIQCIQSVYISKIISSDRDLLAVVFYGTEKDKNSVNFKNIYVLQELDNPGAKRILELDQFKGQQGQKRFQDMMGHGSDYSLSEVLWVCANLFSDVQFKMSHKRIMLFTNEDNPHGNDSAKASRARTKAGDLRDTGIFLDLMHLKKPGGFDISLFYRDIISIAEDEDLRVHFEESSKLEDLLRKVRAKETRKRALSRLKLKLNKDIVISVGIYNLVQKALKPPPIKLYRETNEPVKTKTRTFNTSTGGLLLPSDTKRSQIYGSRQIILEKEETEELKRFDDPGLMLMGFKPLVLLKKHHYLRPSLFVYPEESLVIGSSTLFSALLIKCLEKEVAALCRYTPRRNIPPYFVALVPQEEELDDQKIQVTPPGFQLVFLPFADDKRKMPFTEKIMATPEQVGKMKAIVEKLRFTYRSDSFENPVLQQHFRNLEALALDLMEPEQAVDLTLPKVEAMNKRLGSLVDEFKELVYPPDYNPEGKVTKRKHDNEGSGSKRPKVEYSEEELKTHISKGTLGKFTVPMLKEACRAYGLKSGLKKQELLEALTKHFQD
T2 sequence (P13010 whole entry): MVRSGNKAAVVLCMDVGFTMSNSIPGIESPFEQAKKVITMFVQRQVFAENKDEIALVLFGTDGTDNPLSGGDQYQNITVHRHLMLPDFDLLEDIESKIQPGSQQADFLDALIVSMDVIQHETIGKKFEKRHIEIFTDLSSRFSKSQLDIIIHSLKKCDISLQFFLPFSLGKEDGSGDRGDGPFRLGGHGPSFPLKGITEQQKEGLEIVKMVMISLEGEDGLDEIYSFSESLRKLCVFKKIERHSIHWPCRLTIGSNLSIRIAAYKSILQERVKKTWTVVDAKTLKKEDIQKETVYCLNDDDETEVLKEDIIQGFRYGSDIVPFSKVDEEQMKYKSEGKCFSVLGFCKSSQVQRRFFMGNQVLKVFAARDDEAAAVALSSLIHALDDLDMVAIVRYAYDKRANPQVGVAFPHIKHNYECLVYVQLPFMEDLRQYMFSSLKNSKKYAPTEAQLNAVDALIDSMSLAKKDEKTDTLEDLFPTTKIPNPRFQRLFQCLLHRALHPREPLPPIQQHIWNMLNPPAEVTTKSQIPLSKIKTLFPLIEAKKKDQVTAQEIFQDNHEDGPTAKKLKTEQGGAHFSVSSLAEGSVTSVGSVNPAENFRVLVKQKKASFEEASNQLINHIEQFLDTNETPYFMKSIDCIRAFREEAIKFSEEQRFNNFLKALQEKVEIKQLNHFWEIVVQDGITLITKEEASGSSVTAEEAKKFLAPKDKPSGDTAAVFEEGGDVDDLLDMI
Briefly: EMSA Ku–DNA binding inhibition. Particulars: 32P-labeled 30-bp duplex DNA, purified Ku 70/80, mean and SD of triplicate. The protocol: as §1
Background: In EMSA bound probe runs differently from free probe, usually more slowly.

A further data set relates to H460 NSCLC cells. Description: Cellular uptake by HPLC. Particulars: H460, 10 µM, media with 10% FBS. The data set is classed as in vitro ADME, Human. The protocol:
Cellular uptake was evaluated in two NSCLC cell lines, H460 and A549. Cells were seeded into 6-well plates at a density of 1 × 10^6 cells per well and cultured as monolayers at 37 °C and 5% CO2 for 18–24 h. Ku-DBis were added to the media at a concentration of 10 µM and incubation continued for the times indicated. Media were removed, cells were washed 3 times with PBS, 1 mL of methanol was added to each well, and cells were agitated overnight at 4 °C. The methanol was collected, and wells were washed with an additional 1 mL of methanol that was then pooled with the original. The methanol extracts were then dried under vacuum, resuspended in methanol, and analyzed by HPLC using a 250 × 4.6 and 5 μm C-18 reverse phase column with 1% TFA mobile phase in acetonitrile (ACN) gradient elution. Absorption was monitored at 425 nm, HPLC peaks were quantified using a standard curve, and picomoles of compound per million cells was calculated.

The next data set concerns A549. Description: CCK-8 cell viability, single agent. Format: cell-based, Human. The protocol:
(§2) Cell metabolism/viability was assessed using a mitochondrial metabolism assay (CCK-8) kit (Cell Counting Kit-8, Cat: CK04, Dojindo Laboratories, Rockville, MD, USA) as previously described. Briefly, cells were seeded at a density of 3 × 10^3 cells per well in 96-well plates and allowed to adhere and stretch for 18–24 h prior to treatment. Cells were pre-treated with Ku-DBi for 24 h before bleomycin treatments. Subsequently, cells were incubated for an additional 48 h at 37 °C after which CCK-8 assay was performed. The absorbance of the formed formazan product in each well was measured at 450 nm and compared to vehicle-treated controls to determine percent cell viability. The results represent the average and SEM of triplicate determinations.

The test system of another data set is H1299. Description: CCK-8 cell viability, single agent. Format: cell-based, Human. The protocol: as §2
In another data set the test system is H23. Briefly: CCK-8 cell viability, single agent. Format: cell-based, Human. As to the method: as §2
The next data set relates to MDA-468. Briefly: CCK-8 cell viability, single agent. The data set is classed as cell-based, Human. As to the method:
as §2

For a further data set, the system named is MDA-436. Description: CCK-8 cell viability, single agent. The data set is classed as cell-based, Human. The protocol:
as §2

The test system of another data set is H460. Description: CCK-8 cell viability, single agent. Format: cell-based, Human. As to the method:
as §2

Another data set relates to MDA-MB-436. Description: Bleomycin-sensitization activity, CCK-8. Format: cell-based, Human. Conditions: BRCA1 mutant MDA-MB-436. As to the method: as §2
A further data set relates to MDA-MB-468. Briefly: Bleomycin-sensitization activity, CCK-8. Format: cell-based, Human. Conditions: BRCA1 wild-type MDA-MB-468. As to the method: as §2

T1 sequence (P12956 whole entry): as the sequence (P12956 whole entry) above
T1 sequence (P13010 whole entry): as the sequence (P13010 whole entry) above

With `COc1cccc(NC(=O)c2cc(-c3ccc(/C=C4\C(=O)N(c5cccc(C(=O)O)c5)c5ccccc54)o3)ccc2OC)c1` [GL-3395], on DNA-PK, the “DNA-PK inhibitory activity, fold more active than fluoro-modified counterparts (3618 and 3649)” value was ~ 2.5 fold; it took 0.77 ± 0.24 µM to reach half-maximal inhibition (IC50). In addition, on Ku 70/80, the half-inhibitory concentration (IC50) is 2.4 µM and 2.41 µM.

Turning to `O=C(O)c1cccc(N2C(=O)/C(=C\c3ccc(-c4ccc(F)c(C(=O)Nc5cccc(OC(F)(F)F)c5)c4)o3)c3ccccc32)c1` [GL-3618], the values for the IC50 against DNA-PK and on Ku 70/80 were 1.72 ± 0.15 µM and 3.36 ± 0.89 µM, respectively. Besides, the “Cellular uptake, fold more efficient than methoxy-derivatives 3395 and 3649” value with H460 NSCLC cells is given as ~ 3 fold.

With `O=c1cc(N2CCOCC2)oc2c(-c3cccc4c3sc3ccccc34)cccc12` [NU-7441, reference compound], the “Cell Viability at 25 µM” value in the data set with A549 (25 µM) is recorded as 13.6 ± 1.4 %ctrl; in the data set on H1299 (25 µM) it was 17.8 ± 5.4 %ctrl; with H23 (25 µM), 4.8 ± 0.5 %ctrl; with MDA-468 (25 µM) it was 4.1 ± 0.9 %ctrl; with MDA-436 (25 µM), 17.8 ± 1.3 %ctrl; with H460 (25 µM), 8.3 ± 0.1 %ctrl. Besides, the IC50 in the data set with A549 (A549, CCK-8, 72 h, mean ± SD) is roughly 4.5 µM; in the data set on H1299 (H1299, CCK-8, 72 h, mean ± SD), 4 ± 0.9 µM; in the data set with H23 (H23, CCK-8, 72 h, mean ± SD) it was 2.2 ± 0.1 µM; in the data set with MDA-468 (MDA-468, CCK-8, 72 h, mean ± SD), 5.2 ± 0.4 µM; in the data set with MDA-436 (MDA-436, CCK-8, 72 h, mean ± SD), 8.1 ± 0.9 µM; in the data set with H460 (H460, CCK-8, 72 h, mean ± SD), 4.8 ± 1 µM. Further, the “Fold more sensitive than the other NSCLC lines” value in the data set with H23 (ATM-null H23 cells) is on record as ~ 2 fold. Further, the “Change in sensitivity to bleomycin” value is recorded as “decrease in sensitivity to bleomycin” with MDA-MB-436 and “increase in sensitivity” in the data set with MDA-MB-468.

Take `COc1cccc(NC(=O)c2cc(-c3ccc(/C=C4\C(=O)N(c5cccc(C(=O)O)c5)c5ccccc54)o3)ccc2F)c1` [GL-3649]: the IC50 at DNA-PK was found to be 1.74 ± 0.61 µM; on Ku 70/80, 3.55 ± 0.4 µM.
